Assays:
Test in all cases: Test Example 1: foliar treatment, growth inhibition rate on 14th day
Type in all cases: in vivo
Conditions in all cases: active ingredient amount 31 g/ha, 14th day after application
[1] = system: barnyardgrass (Echinochloa crus-qalli L.)
Source text: (§1) Upland field soil was put into a 1/300,000 hectare pot, and seeds of various plants were sown. When the respective plants reached predetermined leaf stage ((1) barnyardgrass (Echinochloa crus-[…].): 0.5 to 2.9 leaf stage, (2) crabgrass (Digitaria sanquinalis L.): 0.5 to 3.0 leaf stage, (3) green foxtail (Setaria viridis L.): 0.5 to 3.2 leaf stage, (4) wild oat (Avena fatua L.): 0.4 to 1.2 leaf stage, (5) italian ryegrass (Lolium multiflorum Lam.): 0.4 to 2.0 leaf stage, (6) redroot pigweed (Amaranthus retroflexus L.): cotyledon stage to 2.2 leaf stage, (7) rice (Oryza sativa L.): 0.2 to 2.7 leaf stage, (8) corn (Zea mays L.): 1.7 to 3.6 leaf stage, (9) wheat (Triticum aestivum L.): 1.3 to 2.3 leaf stage, (10) soybean (Glycine max Merr.); primary leaf stage), wettable powders or emulsifiable concentrates of the compounds of the present invention prepared in accordance with a conventional preparation method, were weighed so as to achieve the prescribed active ingredient amounts, and diluted with water in an amount corresponding to 1,000 liters per 1 hectare (containing 0.1 vol % of an agricultural spreader (surfactant WK manufactured by MARUWA BIOCHEMICAL Co., Ltd.)), and the spray solutions thus prepared were applied for foliar treatment by a small sprayer. On the 14th day after the application, the state of growth of the respective plants was visually observed, and the herbicidal effect was evaluated by a growth inhibition rate (%) of 0 (equivalent to the non-treated area) to 100 (complete kill).

corn (Zea mays L.) = system: corn (Zea mays L.)
Source text: as §1

[2] = system: crabgrass (Digitaria sanquinalis L.)
Source text: as §1

[3] = system: green foxtail (Setaria viridis L.)
Source text: as §1

[4] = system: italian ryegrass (Lolium multiflorum Lam.)
Source text: as §1

[5] = system: redroot pigweed (Amaranthus retroflexus L.)
Source text: as §1

rice (Oryza sativa L.) = system: rice (Oryza sativa L.)
Source text: as §1

[6] = system: soybean (Glycine max Merr.)
Source text: as §1

[7] = system: wheat (Triticum aestivum L.)
Source text: as §1

[8] = system: wild oat (Avena fatua L.)
Source text: as §1

[9] = visual, 0 = non-treated, 100 = complete kill

SMILES	Growth inhibition rate (%) Barnyardgrass [1] [%]	Growth inhibition rate (%) Corn (corn (Zea mays L.)) [%]	Growth inhibition rate (%) Crabgrass [2] [%]	Growth inhibition rate (%) Green foxtail [3] [%]	Growth inhibition rate (%) Italian ryegrass [4] [%]	Growth inhibition rate (%) Redroot pigweed [5] [%]	Growth inhibition rate (%) Rice (rice (Oryza sativa L.)) [%]	Growth inhibition rate (%) Soybean [6] [%]	Growth inhibition rate (%) Wheat [7] [%]	Growth inhibition rate (%) Wild oat [8] [%]	Growth inhibition rate (%) Barnyardgrass [1, 9] [%]	Growth inhibition rate (%) Corn (corn (Zea mays L.); [9]) [%]	Growth inhibition rate (%) Crabgrass [2, 9] [%]	Growth inhibition rate (%) Green foxtail [3, 9] [%]	Growth inhibition rate (%) Italian ryegrass [4, 9] [%]	Growth inhibition rate (%) Redroot pigweed [5, 9] [%]	Growth inhibition rate (%) Rice (rice (Oryza sativa L.); [9]) [%]	Growth inhibition rate (%) Soybean [6, 9] [%]	Growth inhibition rate (%) Wheat [7, 9] [%]	Growth inhibition rate (%) Wild oat [8, 9] [%]
Cc1ccc(Oc2ncc(C#N)cc2Cl)cc1-c1c(O)c(C)nn(C)c1=O [Compound 2-2]	70	10	70	75	10	20	0	0	0	10	–	–	–	–	–	–	–	–	–	–
CC(=O)Oc1c(C)nn(C)c(=O)c1-c1cc(N(C)c2ncc(C(F)(F)F)cc2Cl)ccc1C [1-145]	93	40	90	70	20	0	0	35	50	40	–	–	–	–	–	–	–	–	–	–
C=CCOc1c(C)nn(C)c(=O)c1-c1cc(Oc2cnc3cc(Cl)ccc3n2)ccc1C [Compound 3-74]	–	–	–	–	–	–	–	–	–	–	93	20	20	95	0	0	0	0	0	25
CC(=O)Oc1c(C(F)(F)F)nn(C)c(=O)c1-c1cc(Oc2ncc(C(F)(F)F)cc2Cl)ccc1C [1-142]	90	50	88	40	20	20	15	40	20	85	–	–	–	–	–	–	–	–	–	–
Cc1ccc(Oc2nc3cc(Br)ccc3o2)cc1-c1c(O)cnn(C)c1=O [Compound 2-183]	95	50	98	98	98	0	90	30	90	95	–	–	–	–	–	–	–	–	–	–
Cc1ccc(Oc2cnc3cc(Cl)ccc3n2)cc1-c1c(OCc2ccccc2)c(C)nn(C)c1=O [Compound 3-41]	100	20	95	99	99	20	10	0	99	98	–	–	–	–	–	–	–	–	–	–
Cc1ccc(Oc2ncc(C(F)(F)F)cc2Cl)cc1-c1c(OC(C)OC(=O)OC(C)C)c(C)nn(C)c1=O (stereo not drawn) [1-133]	88	0	0	30	0	0	0	0	0	40	–	–	–	–	–	–	–	–	–	–
CC(=O)Oc1c(C)nn(C)c(=O)c1-c1cc(Oc2nc3ccc(Cl)cc3s2)ccc1C [Compound 2-132]	90	0	50	80	78	–	40	30	70	90	–	–	–	–	–	–	–	–	–	–
COC(=O)OC(C)Oc1c(C)nn(C)c(=O)c1-c1cc(Oc2ncc(C(F)(F)F)cc2Cl)ccc1C (stereo not drawn) [1-130]	100	95	99	99	93	0	30	0	80	98	–	–	–	–	–	–	–	–	–	–
Cc1ccc(Oc2nc3cccc(Cl)c3o2)cc1-c1c(O)cnn(C)c1=O [Compound 2-185]	93	10	85	88	0	0	0	20	0	0	–	–	–	–	–	–	–	–	–	–
Cc1ccc(Oc2nc3ccccc3o2)cc1-c1c(O)c(C)nn(C)c1=O [Compound 2-104]	85	10	60	70	30	10	10	10	20	35	–	–	–	–	–	–	–	–	–	–
Cc1ccc(Oc2ncc(Cl)cc2C(F)(F)F)cc1-c1c(O)c(C)nn(C)c1=O [Compound 2-92]	80	80	30	10	78	20	0	0	0	50	–	–	–	–	–	–	–	–	–	–
Cc1ccc(Oc2cnc3cc(Cl)ccc3n2)cc1-c1c(OC(=O)CC2CCCCC2)c(C)nn(C)c1=O [Compound 3-80]	–	–	–	–	–	–	–	–	–	–	100	25	95	99	93	0	0	25	90	99
CC(=O)Oc1c(C)nn(C)c(=O)c1-c1cc(Oc2ncc(Cl)cn2)ccc1C [Compound 2-124]	85	0	80	80	0	30	0	0	0	0	–	–	–	–	–	–	–	–	–	–
Cc1ccc(Oc2cnc3cc(Cl)ccc3n2)cc1-c1c(OS(=O)(=O)C2CC2)c(C)nn(C)c1=O [Compound 3-70]	–	–	–	–	–	–	–	–	–	–	98	30	88	98	40	0	0	10	0	60
CCc1nn(C)c(=O)c(-c2cc(Oc3ncc(C(F)(F)F)cc3Cl)ccc2C)c1OCOC [1-138]	100	83	85	60	70	0	0	30	83	90	–	–	–	–	–	–	–	–	–	–

Source: US10870638B2, “Pyridazinone compound or its salt, and herbicide containing it” (ISHIHARA SANGYO KAISHA, LTD., priority 2016, dated 2020)
